In PubChem BioAssay (NCI):
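Each compound was tested at five concentrations against cells in 96-well plates for 48 hours. TGI: total growth inhibition.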

Columns and labels:
Assay in all cases: growth of human tumour cells (NCI), 48 h
UO-31 renal = test system: UO-31 renal
MDA-MB-435 = test system: MDA-MB-435
CAKI-1 renal = test system: CAKI-1 renal
HCC-2998 colon = test system: HCC-2998 colon
OVCAR-5 ovarian = test system: OVCAR-5 ovarian
HT29 colon = test system: HT29 colon
SF-539 CNS = test system: SF-539 CNS
SF-268 CNS = test system: SF-268 CNS
MDA-MB-231 breast = test system: MDA-MB-231 breast
HL-60(TB) leukemia = test system: HL-60(TB) leukemia

Measured: TGI

CSC1(Cc2ccccn2)C(=O)Nc2cccc([N+](=O)[O-])c21 (stereo not given)
> 100 µM: all assays above

CCOC(=O)C(C)(Cc1ccc(O)cn1)NC(=O)c1ccccc1 (stereo not given)
> 100 µM: all assays above
